According to ChEMBL document CHEMBL5214890 (Eur J Med Chem, 2021):
Activity calls are given as the source filed them. No cut-off for these calls is given here.

Assays:
[1] = target: T1, Glucagon-like peptide 1 receptor (Homo sapiens, UniProt P43220); test: Agonist activity at human GLP-1R expressed in HEK293 cells incubated for 30 mins and assessed as increase in cAMP accumulation measured by HTRF assay; assay type: functional, cell-based
[2] = target: T1, Glucagon-like peptide 1 receptor; test: Agonist activity at human GLP-1R expressed in HEK293 cells incubated for 30 mins and assessed as increase in cAMP accumulation measured by HTRF assay relative to control; assay type: functional, cell-based; set-up: concentration or dose not given beside the values; conditions: filed as agonist
Mus musculus [3] = test: Antidiabetic activity in DIO mouse assessed as reduction in blood glucose at 10 nmol/kg, ip pretreated with compound and followed by glucose challenge and measured by oral glucose tolerance test; assay type: functional, organism-based
Mus musculus [4] = test: Antidiabetic activity in db/db mouse assessed as reduction in blood glucose at 10 nmol/kg, ip pretreated with compound and followed by glucose challenge and measured by oral glucose tolerance test; assay type: functional, organism-based
Mus musculus [5] = test: Antidiabetic activity in db/db mouse assessed as reduction in plasma insulin level at 10 nmol/kg, ip pretreated with compound and followed by glucose challenge and measured by oral glucose tolerance test; assay type: functional, organism-based
Mus musculus [6] = test: Antidiabetic activity in overnight fasted male C57BL/6J mouse assessed as reduction in acute food intake at 30 nmol/kg, sc administered at -0.5 hrs; assay type: functional, organism-based
[7] = Toxicity in overnight fasted male Sprague-Dawley rat assessed as induction of Pica behaviour by measuring kaolin intake at 10 to 300 nmol/kg, ip; conditions: in vivo, dose 10-300 nmol/kg
[8] = Half-life in male Sprague-Dawley rat at 25 nmol/kg, iv administered as single dose and measured after 24 hrs by LC-MS/MS analysis; assay type: ADME, organism-based; conditions: in vivo
[9] = Half-life in male Sprague-Dawley rat at 25 nmol/kg, sc administered as single dose and measured after 24 hrs by LC-MS/MS analysis; assay type: ADME, organism-based; conditions: in vivo
Mus musculus [10] = test: Antidiabetic activity in non-fasted male db/db mouse assessed as reduction in glucose level at 10 to 100 nmol/kg, sc; assay type: functional, organism-based; conditions: dose 10-100 nmol/kg, DDE = dose-dependent effect
Mus musculus [11] = test: Antidiabetic activity in male DIO mouse assessed as decrease in cumulative food intake at 100 nmol/kg, sc administered twice daily for 7 days; assay type: functional, organism-based; conditions: time 7.0 day
[12] = Toxicity in male DIO mouse assessed as change in liver AST level at 100 nmol/kg, sc administered twice daily for 7 days; assay type: organism-based; conditions: in vivo, 168 h, time 7 day
[13] = Toxicity in male DIO mouse assessed as change in liver ALT level at 100 nmol/kg, sc administered twice daily for 7 days; assay type: organism-based; conditions: in vivo, 168 h, time 7 day
[14] = Toxicity in male DIO mouse assessed as change in serum lipase at 100 nmol/kg, sc administered twice daily for 7 days; assay type: organism-based; conditions: in vivo, 168 h, time 7 day
Mus musculus [15] = test: Antidiabetic activity in male db/db mouse assessed as decrease in cumulative food intake at 100 nmol/kg, sc administered twice daily for 7 days; assay type: functional, organism-based; conditions: time 7.0 day
Mus musculus [16] = test: Antidiabetic activity in male db/db mouse assessed as decrease in fasted blood glucose at 100 nmol/kg, sc administered twice daily for 7 days; assay type: functional, organism-based; conditions: time 7.0 day
[17] = Toxicity in male db/db mouse assessed as change in BUN at 100 nmol/kg, sc administered twice daily for 7 days; assay type: organism-based; conditions: in vivo, 168 h, time 7 day
[18] = Toxicity in male db/db mouse assessed as change in serum lipase at 100 nmol/kg, sc administered twice daily for 7 days; assay type: organism-based; conditions: in vivo, 168 h, time 7 day
Mus musculus [19] = test: Antidiabetic activity in male db/db mouse assessed as reduction in blood glucose level at 30 nmol/kg, sc administered twice daily for 35 days; assay type: functional, organism-based; conditions: time 35.0 day
Mus musculus [20] = test: Antidiabetic activity in male db/db mouse assessed as increase in islet area at 30 nmol/kg, sc administered twice daily for 35 days; assay type: functional, organism-based; conditions: time 35.0 day
[21] = Toxicity in male db/db mouse assessed as change in liver ALT level at 30 nmol/kg, sc administered twice daily for 35 days; assay type: organism-based; conditions: in vivo, 840 h, time 35 day
Mus musculus [22] = test: Antidiabetic activity in male […] assessed as improvement in glucose tolerance at 30 nmol/kg, sc administered twice daily for 3 weeks; assay type: functional, organism-based
Mus musculus [23] = test: Antidiabetic activity in male […] assessed as increase in plasma FGF21 level at 30 nmol/kg, sc administered twice daily for 3 weeks; assay type: functional, organism-based
Mus musculus [24] = test: Antidiabetic activity in male […] assessed as decrease in serum triglycerides level at 30 nmol/kg, sc administered twice daily for 3 weeks; assay type: functional, organism-based
Mus musculus [25] = test: Antidiabetic activity in male […] assessed as increase in serum HDL/LDL ratio at 30 nmol/kg, sc administered twice daily for 3 weeks; assay type: functional, organism-based

T1 sequence (P43220 whole entry): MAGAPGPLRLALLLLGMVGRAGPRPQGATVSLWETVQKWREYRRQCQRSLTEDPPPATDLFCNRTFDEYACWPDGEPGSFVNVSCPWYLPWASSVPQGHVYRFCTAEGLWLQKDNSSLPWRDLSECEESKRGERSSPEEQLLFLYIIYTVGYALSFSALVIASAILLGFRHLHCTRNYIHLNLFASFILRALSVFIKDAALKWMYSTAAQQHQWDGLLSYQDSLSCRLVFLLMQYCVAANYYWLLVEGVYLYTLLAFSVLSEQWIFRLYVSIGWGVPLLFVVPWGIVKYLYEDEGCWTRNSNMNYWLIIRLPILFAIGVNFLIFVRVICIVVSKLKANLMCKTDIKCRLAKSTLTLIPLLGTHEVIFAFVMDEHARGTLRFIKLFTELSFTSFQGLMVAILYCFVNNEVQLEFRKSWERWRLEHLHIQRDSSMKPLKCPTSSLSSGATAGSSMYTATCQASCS

In the case of `CCCCCCCCCCCCCCCC(=O)N[C@@H](CCC(=O)NCCCC[C@H](NC(=O)[C@H](Cc1ccc(O)cc1)NC(=O)[C@H](CCCCN)NC(=O)[C@H](CO)NC(=O)[C@@H](NC(=O)[C@H](CC(=O)O)NC(=O)[C@H](CC(N)=O)NC(=O)[C@@H](NC(=O)[C@H](Cc1ccc(O)cc1)NC(=O)[C@@H](NC(=O)CNC(=O)[C@H](CCC(N)=O)NC(=O)[C@@H](CO)NC(=O)[C@@H](N)Cc1c[nH]cn1)[C@@H](C)O)[C@@H](C)O)C(C)C)C(=O)N[C@@H](CC(=O)O)C(=O)N[C@@H](CO)C(=O)N[C@@H](CCCNC(=N)N)C(=O)N[C@@H](CCCNC(=N)N)C(=O)N[C@@H](C)C(=O)N[C@@H](CCC(N)=O)C(=O)N[C@@H](CC(=O)O)C(=O)N[C@@H](Cc1ccccc1)C(=O)N[C@H](C(=O)N[C@@H](CCC(=O)O)C(=O)N[C@@H](Cc1c[nH]c2ccccc12)C(=O)N[C@@H](CC(C)C)C(=O)N[C@@H](CCCCN)C(=O)N[C@@H](CC(N)=O)C(=O)NCC(=O)NCC(=O)N1CCC[C@H]1C(=O)N[C@@H](CO)C(=O)N[C@@H](CO)C(=O)NCC(=O)N[C@@H](C)C(=O)N1CCC[C@H]1C(=O)N1CCC[C@H]1C(=O)N1CCC[C@H]1C(=O)N[C@@H](CO)C(N)=O)[C@@H](C)CC)C(=O)O`, the EC50 [1] is reported as 0.031 nM, the Activity [2] is reported as 132% and the Activity (Mus musculus [3]) is reported as “Active”. For the same molecule, the Activity (Mus musculus [4]) was “Active”, the Activity (Mus musculus [5]) was “Active” and the Activity (Mus musculus [6]) was “Active”. The Activity [7] was “Non-Toxic”, the half-life [8] was 2.6 h and the half-life [9] was 4 h. The Activity (Mus musculus [10]) was “Dde”, the Activity (Mus musculus [11]) was “Active” and the Activity [12] was “Non-Toxic”. For the same molecule, the Activity [13] was “Non-Toxic”, the Activity [14] was “Non-Toxic” and the Activity (Mus musculus [15]) was “Active”. The Activity (Mus musculus [16]) was “Active”, the Activity [17] was “Non-Toxic” and the Activity [18] was “Non-Toxic”. The Activity (Mus musculus [19]) was “Active”, the Activity (Mus musculus [20]) was “Active” and the Activity [21] was “Non-Toxic”. For the same molecule, the Activity (Mus musculus [22]) was “Active”, the Activity (Mus musculus [23]) was “Active” and the Activity (Mus musculus [24]) was “Active”. The Activity (Mus musculus [25]) was “Active”.
